Assay [1] concerns the target Merkel cell polyomavirus (MCPyV) major capsid protein VP1, assembled as virus-like particles (Merkel cell polyomavirus (MCC isolate 339)). The experiment in a line: crystal structure; filled VLPs (fVLPs), crystals grown in 0.1 M sodium citrate pH 4.6, 30% MPD, 0.2 M NaCl at 20°C; 3.5 Å.
The target is the same in assay [2]. The experiment in a line: nonreducing SDS-PAGE; purified VLPs incubated with 10 mM DTT and/or 50 mM EDTA with 2% SDS for 1 h at ambient temperature; capsid to pentamers.
The target in assay [3] is T1, MCPyV VLPs (VP1/VP2 virus-like particles) (Merkel cell polyomavirus, UniProt B0G0W3).
T1 construct: untagged icosahedral VLPs of 72 VP1 pentamers; VP1-only VLPs behaved the same; with Minor capsid protein VP2
Nature of the assay: STD-NMR. Particulars: 10 uM VLP, 1 mM ligand, 150 mM NaCl, 1 mM CaCl2, D2O, 283 K. Type of assay: binding.

The target of assay [4] is T2, HPV-16 VLPs (L1- and L2-containing) (Human papillomavirus 16, UniProt P03101).
T2 construct: L1/L2 VLPs produced by the MCPyV VLP procedure (293TT cells) without the ion chromatography step; plasmids pshell16 and p16L1L2; with Minor capsid protein L2
The experiment in a line: STD-NMR. It is filed as binding. Particulars: 10 uM VLP, 1 mM ligand, D2O, 283 K; buffer printed as PBS and as 150 mM NaCl, 20 mM KH2PO4 pH 7.4.

“Merkel cell polyomavirus (MCPyV) major capsid protein VP1, assembled as virus-like particles (natural protein)”: the stoichiometry N in assay [1] is 360; in assay [2] it was 5.
As for `O=C(O)C1=C[C@H](O)[C@@H](OS(=O)(=O)O)[C@H](O[C@H]2[C@H](O)[C@@H](NS(=O)(=O)O)C(O)O[C@@H]2COS(=O)(=O)O)O1` (some centres unmarked) [HS-dp2, ΔUA2Sα1-4GlcNS6S], the STD-NMR entry in assay [3] (VP1-only and VP1/VP2 VLPs) was “an interaction between MCPyV VLPs and dp2 was unambiguously observed”.
For the compound `CO[C@H]1O[C@H](COS(=O)(=O)O)[C@@H](O[C@@H]2O[C@@H](C(=O)O)[C@@H](O[C@H]3O[C@H](COS(=O)(=O)O)[C@@H](O[C@@H]4O[C@H](C(=O)O)[C@@H](O[C@H]5O[C@H](COS(=O)(=O)O)[C@@H](O)[C@H](O)[C@H]5NS(=O)(=O)O)[C@H](O)[C@H]4O)[C@H](OS(=O)(=O)O)[C@H]3NS(=O)(=O)O)[C@H](O)[C@H]2OS(=O)(=O)O)[C@H](O)[C@H]1NS(=O)(=O)O` [Arixtra, GlcNS6Sα1-4GlcAα1-4GlcNS3S6Sα1-4IdoA2Sα1-4GlcNS6Sα-OMet], the STD-NMR entry was “the HPV-16 VLP Arixtra binding epitope is indistinguishable from the MCPyV VLP Arixtra epitope” in assay [4] and “we observed STD-NMR signals throughout the full length of the pentasaccharide” in assay [3] (filled (and empty) VLPs).

The record behind these values is publication PMC7527053, “Structure of Merkel Cell Polyomavirus Capsid and Interaction with Its Glycosaminoglycan Attachment Receptor” (Journal of Virology, 2020).
